Results taken from patent publication US5962502A, “Polyamidic acid derivatives with antigastrin activity, a method for their preparation, and their pharmaceutical use” (priority 1993, dated 1999).
Where “and” joins values, the source holds several entries; their conditions need not be identical. Identical values can stand only once. One block for each compound: values may come before it.

Key:
[1] = biological target: T1, central CCK-B receptor (Cavia porcellus, UniProt H0VZC5); assay: Inhibition of the binding of [3-H][N-methyl-N-leucine]CCK-8 to guinea-pig cortical membranes; conditions: guinea-pig cortical membranes, 150 minutes at 25° C.
T1 construct: Cerebral cortices of male white guinea-pigs were thus used; from tissue; host or cells: cerebral cortex membranes of male white guinea-pigs
T1 sequence (H0VZC5 1-426): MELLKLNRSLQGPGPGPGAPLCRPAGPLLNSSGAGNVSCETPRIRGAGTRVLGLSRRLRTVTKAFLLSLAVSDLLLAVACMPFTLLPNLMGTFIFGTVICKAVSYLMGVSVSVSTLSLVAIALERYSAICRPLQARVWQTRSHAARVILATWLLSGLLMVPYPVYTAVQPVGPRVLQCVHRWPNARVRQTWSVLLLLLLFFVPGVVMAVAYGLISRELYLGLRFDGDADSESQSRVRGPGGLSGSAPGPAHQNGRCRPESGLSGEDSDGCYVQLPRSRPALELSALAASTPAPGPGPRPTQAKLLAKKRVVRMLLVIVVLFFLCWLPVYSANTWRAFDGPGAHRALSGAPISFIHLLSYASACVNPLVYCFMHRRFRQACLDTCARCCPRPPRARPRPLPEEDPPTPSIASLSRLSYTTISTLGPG
Description: The ability of the compounds of the invention to interact with the central CCK-B receptor was evaluated with the use of non-sulphated [3-H] […] 225 (3) (1990), 1278-1286].
Cerebral cortices of male white guinea-pigs were thus used, according to the method mentioned above, so as to obtain a membrane content corresponding to about 300 mcg of proteins/ml. The membranes were incubated together with the radioactive tracer and the compounds under test for 150 minutes at 25° C. After the supernatant had been discarded, the radioactivity associated with the pellet was determined with a liquid scintillator. The specific binding was determined as the difference between the binding in the absence and in the presence of 5.10^-6 M CCK-8.

[2] = biological target: T2, gastrin receptors or type-B cholecystokinin (CCK-B) receptors (Oryctolagus cuniculus, UniProt P46627); assay: Inhibition of the gastrin-induced increase of cytosolic calcium in rabbit gastric mucous-membrane cells (Fura 2); type: cell-based; conditions: for Ratio IC50 Binding cortex / IC50 (gastric mucous cells): binding values taken from Table 3; for IC50, inhibition of the increase of cytosolic calcium: rabbit gastric mucous cells enriched in parietal cells, gastrin 5×10^-8
T2 construct: Rabbit gastric mucous-membrane cells were prepared by conventional techniques; endogenous in cells; host or cells: freshly isolated rabbit gastric mucosal cells, enriched by elutriation to about 70% parietal cells
T2 sequence (P46627 1-452): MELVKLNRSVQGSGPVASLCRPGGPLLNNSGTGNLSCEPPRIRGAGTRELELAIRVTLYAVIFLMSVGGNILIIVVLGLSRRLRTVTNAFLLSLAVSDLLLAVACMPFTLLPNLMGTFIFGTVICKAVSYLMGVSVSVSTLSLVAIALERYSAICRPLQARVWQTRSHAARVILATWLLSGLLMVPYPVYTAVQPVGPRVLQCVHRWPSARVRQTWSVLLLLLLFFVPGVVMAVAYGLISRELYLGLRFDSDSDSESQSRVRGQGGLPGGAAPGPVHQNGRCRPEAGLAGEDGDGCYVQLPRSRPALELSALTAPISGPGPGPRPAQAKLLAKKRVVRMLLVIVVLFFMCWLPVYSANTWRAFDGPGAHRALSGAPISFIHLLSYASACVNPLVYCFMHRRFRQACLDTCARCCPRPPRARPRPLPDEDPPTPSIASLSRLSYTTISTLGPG
Excerpt: The parietal cells of the gastric mucous membrane are responsible for the secretion of HCl. They have specific membrane receptors which can be activated by gastrin and which have been defined as gastrin receptors or type-B cholecystokinin (CCK-B) receptors. Since it has been observed that the activation of the CCK-B receptors by gastrin leads to an increase in the cytosolic levels of calcium ions, a technique involving the measurement of the increase in intracellular calcium induced by gastrin in the presence and in the absence of the compounds of the invention was used as an index of the antigastrin activity of the compounds. Rabbit gastric mucous-membrane cells were prepared by conventional techniques with the use of collagenase and pronase as digestive enzymes. The cellular preparation obtained by the enzymatic digestion was composed of parietal cells, zymogen cells and mucous-membrane cells. […] The cells were then washed and resuspended in a saline solution buffered with HEPES containing, in mM: […] Each measurement was carried out on cells in suspension (0.8×10^6 /ml) at a thermostatically-controlled temperature of 37° C. and with constant magnetic stirring. The fluorescence was recorded with the use of a spectrofluorometer. The operative wavelengths were 340/380 nm for excitation and 505 nm for emission. […] Biol. Chem. 260 (1985), 3440]. […] The results thus obtained for some compounds of the invention are given in Table 4, which also gives an index derived from the ratio between the peripheral antigastrin activity just described and the displacement activity found in the test on binding to the guinea-pig cortex receptors described above.

[3] = test system: acid secretion induced by pentagastrin; assay: Acid secretion induced by pentagastrin in the anaesthetized rat; type: in vivo; conditions: iv, 1 h, I.V. bolus, pentagastrin 30 mcg/kg/h, read-out: Activity (ID50), inhibition of the acid secretion induced by pentagastrin
Description: The activity of the compounds of the invention against gastric secretion performed by means of a mechanism with an antigastrin effect, was examined in vivo in anaesthetized rats with the use of male animals weighing about 200 g. Gastric secretion was stimulated with pentagastrin and Lai's method [Gut 5, (1964), 327-341 ] was used, with slight modification.
After tracheotomy, the oesophagus and duodenum were cannulated. A tepid solution (37° C.) of 0.25 mM NaOH was perfused and was passed through the stomach by means of a peristaltic pump at a constant flow-rate of 1 ml/minute. After stabilization for 20 minutes, the stimulant, dissolved in a physiological solution, was perfused for 120 minutes at a dose of 30 mcg/kg/h, in a volume of 0.95 ml/hour. After perfusion for 60 minutes (the basal stimulation), the product under test was administered intravenously (I.V.) as a bolus and perfusion of the stimulant was continued for a further 60 minutes. The acid secretion was recorded continuously as a function of time.
The activity of the product was evaluated as the percentage reduction of secreted acidity after the administration of the product, in comparison with the basal acidity measured during the first 60 minutes of collection in the presence of pentagastrin alone.
The antagonistic compounds tested were administered in various doses so that an ID50, that is, the dose (in mg/kg I.V.) which could inhibit the effect of pentagastrin by 50%, could be calculated.

[4] = test system: mouse; assay: Black and White Box test in the mouse (anxiolytic activity); type: in vivo; conditions: for LIGHT TIME TOTAL TIME / LIGHT-DARK MOVEMENTS / MOV. DARK % TOTAL MOV. / TOTAL MOVEMENTS: 5 minutes
Description: It has recently been postulated that the central CCK-B receptor has an important role in anxiety. This is in accordance with studies also carried out in man, which have shown that the central CCK-B mechanisms have an important function in the mediation of panic attacks [Bradwejn, H. et al; J. Psychopharmacology 6 (1992), 345]. […] This experimental model, which was carried out according to Costall et al [Pharm. Biochem. Behav. 32 (1989), 777-785], used a box with dimensions of 45×21×21(h) cm divided into 2 compartments which communicated with one another through a 13×5 cm hole. The smaller compartment (1/3 of the total area) had black walls, whereas the larger had transparent walls and was illuminated by a lamp which was placed 20 cm above the box and supplied light at 20W. Under the floor there was an activity meter which recorded the movements performed by the animal in the individual compartments. The experiment was started by placing the animal in the centre of the illuminated box; as well as movements, the time which the animal spent in the dark and in the light areas and the number of movements between the 2 compartments were then recorded for 5 minutes. A control animal generally preferred to stay in the dark compartment where it felt better protected from an unusual environmental situation which put it in a state of anxiety. In this experimental model, a compound having anxiolytic activity decreased the % of movements into the dark in comparison with the total movements, increased the movements between the two light-dark compartments, and increased the % of time spent in the light in comparison with the total time.
The results obtained are shown in Table 7, where the activities obtained with compounds 9, 21 and 51 are given, tested in comparison with diazepam.

IC50 [1]: 180 nM | Ratio IC50 Binding cortex / IC50 (gastric mucous cells) [2]: 6.0 | IC50, inhibition of the increase of cytosolic calcium [2]: 30 nM
Compound: CN(Cc1ccccc1)C(=O)[C@@H](CCC(=O)O)NC(=O)CC[C@@H](NC(=O)c1cc(Cl)cc(Cl)c1)C(=O)N1CCC2(CCCC2)CC1 [Compound 38]
ED50 [3]: 7 mg/kg and 10.4 µmol/kg

IC50 [1]: 120 nM | Ratio IC50 Binding cortex / IC50 (gastric mucous cells) [2]: 2.4 | IC50, inhibition of the increase of cytosolic calcium [2]: 50 nM
Compound: CN(C(=O)CC[C@@H](NC(=O)c1cc(Cl)cc(Cl)c1)C(=O)N1CCC2(CCCC2)CC1)c1ccccc1C(=O)O [Compound 51]
ED50 [3]: 9 mg/kg and 15.7 µmol/kg | EFF. % VS CONTROL (LIGHT TIME TOTAL TIME) ([4]; 0.1 mg/kg IP): 12% | EFF. % VS CONTROL (LIGHT-DARK MOVEMENTS) ([4]; 0.1 mg/kg IP): 19% | EFF. % VS CONTROL (MOV. DARK % TOTAL MOV.) ([4]; 0.1 mg/kg IP): -12% | LIGHT TIME TOTAL TIME ([4]; 0.1 mg/kg IP): 27.0% | LIGHT-DARK MOVEMENTS ([4]; 0.1 mg/kg IP): 17.6 | MOV. DARK % TOTAL MOV. ([4]; 0.1 mg/kg IP): 61% | TOTAL MOVEMENTS ([4]; 0.1 mg/kg IP): 472 | EFF. % VS CONTROL (LIGHT TIME TOTAL TIME) ([4]; 1.0 mg/kg IP): 48% | EFF. % VS CONTROL (LIGHT-DARK MOVEMENTS) ([4]; 1.0 mg/kg IP): 34% | EFF. % VS CONTROL (MOV. DARK % TOTAL MOV.) ([4]; 1.0 mg/kg IP): -14% | LIGHT TIME TOTAL TIME ([4]; 1.0 mg/kg IP): 35.6% | LIGHT-DARK MOVEMENTS ([4]; 1.0 mg/kg IP): 19.8 | MOV. DARK % TOTAL MOV. ([4]; 1.0 mg/kg IP): 59% | TOTAL MOVEMENTS ([4]; 1.0 mg/kg IP): 484 | EFF. % VS CONTROL (LIGHT TIME TOTAL TIME) ([4]; 10.0 mg/kg IP): 16% | EFF. % VS CONTROL (LIGHT-DARK MOVEMENTS) ([4]; 10.0 mg/kg IP): 37% | EFF. % VS CONTROL (MOV. DARK % TOTAL MOV.) ([4]; 10.0 mg/kg IP): -10% | LIGHT TIME TOTAL TIME ([4]; 10.0 mg/kg IP): 27.8% | LIGHT-DARK MOVEMENTS ([4]; 10.0 mg/kg IP): 20.3 | MOV. DARK % TOTAL MOV. ([4]; 10.0 mg/kg IP): 62% | TOTAL MOVEMENTS ([4]; 10.0 mg/kg IP): 436 | anxiolytic activity, result in words ([4]; Black and White Box test, IP): anxiolytic activity without sedative activity | increase in the number of light-dark movements in comparison with the controls ([4]; summary over doses): 20-30%

IC50 [1]: 640 nM | Ratio IC50 Binding cortex / IC50 (gastric mucous cells) [2]: 1.9 | IC50, inhibition of the increase of cytosolic calcium [2]: 330 nM
Compound: O=C(N[C@H](CCC(=O)N1CCCC(C(=O)O)C1)C(=O)N1CCC2(CCCC2)CC1)c1cc(Cl)cc(Cl)c1 (stereo partly drawn) [Compound 58, (R)-1-(piperidine-3-carboxy)-1-oxo-5-(8-azaspiro[4.5]decan-8-yl)-4-(3,5-dichloro-benzoylamino)-5-oxopentanoic acid]
ED50 [3]: 10.1 mg/kg and 18.3 µmol/kg
